Series [1] addresses NaV1.6 (Homo sapiens (Human), UniProt Q9UQD0). Description: Sodium Influx Assay (Flux), NaV1.6. The following applies: read-out: Flux NaV1.6 IC50; Trex HEK293 cells, ANG2 dye; arithmetic mean.
Series [2] concerns the target NaV1.5 (Homo sapiens (Human), UniProt Q14524). Description: Sodium Influx Assay (Flux), NaV1.5. The following applies: read-out: Flux NaV1.5 IC50; Trex HEK293 cells, ANG2 dye; arithmetic mean.
The target of series [3] is NaV1.1 (Homo sapiens (Human), UniProt P35498). Nature of the series: Sodium Influx Assay (Flux), NaV1.1. The series is classed as cell-based. Conditions: Trex HEK293 cells, ANG2 dye; arithmetic mean.

Each structure is given as a SMILES string. Structures can show the parent of a compound that is named as a salt.

One may read the IC50 as the concentration that gives 50% inhibition.

NaV1.5, sequence (Q14524 other isoform, or with tags, fused parts or gaps): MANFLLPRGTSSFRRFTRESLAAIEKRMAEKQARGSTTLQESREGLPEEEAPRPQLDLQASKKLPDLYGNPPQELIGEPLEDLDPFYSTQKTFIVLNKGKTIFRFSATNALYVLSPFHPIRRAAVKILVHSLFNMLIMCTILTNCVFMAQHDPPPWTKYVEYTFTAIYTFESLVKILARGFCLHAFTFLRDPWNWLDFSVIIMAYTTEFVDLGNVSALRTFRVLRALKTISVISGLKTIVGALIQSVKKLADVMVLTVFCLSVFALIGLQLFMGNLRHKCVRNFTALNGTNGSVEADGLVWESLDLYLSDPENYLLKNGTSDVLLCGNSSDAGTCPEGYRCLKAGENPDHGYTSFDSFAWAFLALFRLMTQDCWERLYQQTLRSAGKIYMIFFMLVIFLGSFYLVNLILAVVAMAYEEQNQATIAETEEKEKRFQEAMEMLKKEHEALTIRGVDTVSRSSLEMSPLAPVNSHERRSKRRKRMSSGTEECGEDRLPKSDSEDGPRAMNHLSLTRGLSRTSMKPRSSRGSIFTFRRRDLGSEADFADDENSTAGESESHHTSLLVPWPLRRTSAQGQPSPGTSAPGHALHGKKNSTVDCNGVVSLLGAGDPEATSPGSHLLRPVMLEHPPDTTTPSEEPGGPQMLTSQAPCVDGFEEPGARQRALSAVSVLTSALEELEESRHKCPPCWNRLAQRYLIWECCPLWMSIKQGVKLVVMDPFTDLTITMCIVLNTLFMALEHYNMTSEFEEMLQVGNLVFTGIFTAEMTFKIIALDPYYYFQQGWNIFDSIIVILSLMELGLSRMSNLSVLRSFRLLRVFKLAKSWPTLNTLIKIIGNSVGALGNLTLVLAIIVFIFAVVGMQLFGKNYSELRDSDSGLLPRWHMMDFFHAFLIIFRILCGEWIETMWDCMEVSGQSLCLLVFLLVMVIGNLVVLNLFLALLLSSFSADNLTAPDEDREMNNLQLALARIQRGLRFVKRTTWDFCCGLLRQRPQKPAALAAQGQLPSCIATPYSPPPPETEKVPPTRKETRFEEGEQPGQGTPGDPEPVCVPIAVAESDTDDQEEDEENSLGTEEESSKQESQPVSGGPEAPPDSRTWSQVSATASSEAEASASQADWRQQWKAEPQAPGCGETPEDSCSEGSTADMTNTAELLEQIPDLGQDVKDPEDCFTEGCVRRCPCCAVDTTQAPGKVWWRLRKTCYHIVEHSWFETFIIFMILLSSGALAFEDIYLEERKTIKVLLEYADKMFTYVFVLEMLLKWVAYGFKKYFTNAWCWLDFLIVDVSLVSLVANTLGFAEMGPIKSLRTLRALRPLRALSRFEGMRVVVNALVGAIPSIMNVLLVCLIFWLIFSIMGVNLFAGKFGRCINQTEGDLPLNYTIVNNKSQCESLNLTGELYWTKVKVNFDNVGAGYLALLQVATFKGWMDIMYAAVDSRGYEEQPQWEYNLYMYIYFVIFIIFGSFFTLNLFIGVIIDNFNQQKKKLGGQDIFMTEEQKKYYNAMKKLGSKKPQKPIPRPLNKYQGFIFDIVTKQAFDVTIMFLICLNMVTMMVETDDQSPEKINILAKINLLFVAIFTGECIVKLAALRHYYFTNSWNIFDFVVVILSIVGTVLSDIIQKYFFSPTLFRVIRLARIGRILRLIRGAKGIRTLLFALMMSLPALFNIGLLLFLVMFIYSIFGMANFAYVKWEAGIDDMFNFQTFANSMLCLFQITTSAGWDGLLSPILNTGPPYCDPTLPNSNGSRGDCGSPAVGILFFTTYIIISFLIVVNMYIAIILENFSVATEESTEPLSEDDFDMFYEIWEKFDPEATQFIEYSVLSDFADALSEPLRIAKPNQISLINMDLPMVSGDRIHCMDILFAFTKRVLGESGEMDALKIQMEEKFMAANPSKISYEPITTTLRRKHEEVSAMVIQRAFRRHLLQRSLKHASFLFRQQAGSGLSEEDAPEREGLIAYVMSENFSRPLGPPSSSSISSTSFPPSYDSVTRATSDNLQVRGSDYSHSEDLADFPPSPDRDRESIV

For the compound `Cc1cc(S(=O)(=O)Nc2cscn2)c(F)cc1N(C)[C@H]1CCN(Cc2cc3ccccn3n2)C1` [Example 122, (S)-2-fluoro-5-methyl-4-(methyl(1-(pyrazolo[1,5-a]pyridin-2-ylmethyl)pyrrolidin-3-yl)amino)-N-(thiazol-4-yl)benzenesulfonamide], the IC50 worked out at 1720 nM in series [1], 24.2 µM in series [2] and 26.9 µM in series [3].
The corresponding values for `Cc1cc(S(=O)(=O)Nc2cscn2)c(F)cc1N(C)[C@H]1CCN(CC2CCCCC2)C1` [Example 123, (S)-4-((1-(cyclohexylmethyl)-pyrrolidin-3-yl)(methyl)amino)-2-fluoro-5-methyl-N-(thiazol-4-yl)benzenesulfonamide] are 4000 nM, above 30 µM and 7.48 µM.
Regarding `Cc1cc(S(=O)(=O)Nc2cscn2)c(F)cc1N(C)[C@H]1CCN(CC(C)(C)C)C1` [Example 124, (S)-2-fluoro-5-methyl-4-(methyl(1-neopentylpyrrolidin-3-yl)amino)-N-(thiazol-4-yl)benzenesulfonamide formate], the IC50 in series [1] was 9920 nM; in series [2] it was above 30 µM; in series [3], above 30 µM.
`Cc1cc(S(=O)(=O)Nc2cscn2)c(F)cc1N(C)[C@H]1CCN(CCC(C)(C)C)C1` [Example 125, (S)-4-((1-(3,3-dimethylbutyl)-pyrrolidin-3-yl)(methyl)amino)-2-fluoro-5-methyl-N-(thiazol-4-yl)benzenesulfonamide formate]: the IC50 in series [1] was 2320 nM; in series [2], above 30 µM; in series [3] it was 14.7 µM.
For `Cc1cc(S(=O)(=O)Nc2cscn2)c(F)cc1N(C)[C@H]1CCN(Cc2ccc(O)cc2)C1` [Example 126, (S)-2-fluoro-4-((1-(4-hydroxybenzyl)-pyrrolidin-3-yl)(methyl)amino)-5-methyl-N-(thiazol-4-yl)benzenesulfonamide], the IC50 in series [1] is 4520 nM; in series [2] it was above 30 µM; in series [3], above 30 µM.
`Cc1cc(S(=O)(=O)Nc2cscn2)c(F)cc1N(C)[C@H]1CCN(Cc2cccc(C)c2F)C1` [Example 127, (S)-2-fluoro-4-((1-(2-fluoro-3-methylbenzyl)pyrrolidin-3-yl)(methyl)amino)-5-methyl-N-(thiazol-4-yl)benzenesulfonamide 2,2,2-trifluoroacetate]: the concentration for half-maximal inhibition (IC50) turned out to be 520 nM in series [1], 10.1 µM in series [2] and 10.7 µM in series [3].
The corresponding values for `Cc1cc(S(=O)(=O)Nc2cscn2)c(F)cc1N(C)[C@H]1CCN([C@H]2CCc3ccccc32)C1` [Example 128, 4-(((S)-1-((S)-2,3-dihydro-1H-inden-1-yl)pyrrolidin-3-yl)(methyl)amino)-2-fluoro-5-methyl-N-(thiazol-4-yl)benzenesulfonamide] are 185 nM, 22.5 µM and above 30 µM.
The corresponding values for `Cc1csc(CN2CC[C@H](N(C)c3cc(F)c(S(=O)(=O)Nc4cscn4)cc3C)C2)n1` [Example 129, (S)-2-fluoro-5-methyl-4-(methyl(1-((4-methylthiazol-2-yl)methyl)pyrrolidin-3-yl)amino)-N-(thiazol-4-yl)benzenesulfonamide] are 828 nM, above 30 µM and above 30 µM.
The corresponding values for `Cc1ccc(F)c(CN2CC[C@H](N(C)c3cc(F)c(S(=O)(=O)Nc4cscn4)cc3C)C2)n1` [Example 130, (S)-2-fluoro-4-((1-((3-fluoro-6-methylpyridin-2-yl)methyl)pyrrolidin-3-yl)(methyl)amino)-5-methyl-N-(thiazol-4-yl)benzenesulfonamide] are 285 nM, 24.2 µM and above 30 µM.
In the case of `Cc1nc(CN2CC[C@H](N(C)c3cc(F)c(S(=O)(=O)Nc4cscn4)cc3C)C2)co1` [Example 131, (S)-2-fluoro-5-methyl-4-(methyl(1-((2-methyloxazol-4-yl)methyl)pyrrolidin-3-yl)amino)-N-(thiazol-4-yl)benzenesulfonamide], the IC50 in series [1] is 2860 nM; in series [2], above 30 µM; in series [3], above 30 µM.
As for `Cc1ccc(CN2CC[C@H](N(C)c3cc(F)c(S(=O)(=O)Nc4cscn4)cc3C)C2)o1` [Example 132, (S)-2-fluoro-5-methyl-4-(methyl(1-((5-methylfuran-2-yl)methyl)pyrrolidin-3-yl)amino)-N-(thiazol-4-yl)benzenesulfonamide], the 50% inhibitory concentration (IC50) in series [1] is 146 nM; in series [2], above 30 µM; in series [3] it was 20.9 µM.
The corresponding values for `Cc1cc(S(=O)(=O)Nc2cscn2)c(F)cc1N(C)[C@H]1CCN(Cc2coc(C(C)C)n2)C1` [Example 133, (S)-2-fluoro-4-((1-((2-isopropyloxazol-4-yl)methyl)pyrrolidin-3-yl)(methyl)amino)-5-methyl-N-(thiazol-4-yl)benzenesulfonamide] are 245 nM, above 30 µM and 10.9 µM.
The like results for `Cc1cc(S(=O)(=O)Nc2cscn2)c(F)cc1N(C)[C@H]1CCN(Cc2nc(C3CC3)cs2)C1` [Example 134, (S)-4-((1-((4-cyclopropylthiazol-2-yl)methyl)pyrrolidin-3-yl)(methyl)amino)-2-fluoro-5-methyl-N-(thiazol-4-yl)benzenesulfonamide] were, in that order, 412 nM, above 30 µM and 12.1 µM.
The like results for `Cc1cc(S(=O)(=O)Nc2cscn2)c(F)cc1N(C)[C@H]1CCN(Cc2csc(-c3ccccc3)n2)C1` [Example 135, (S)-2-fluoro-5-methyl-4-(methyl(1-((2-phenylthiazol-4-yl)methyl)pyrrolidin-3-yl)amino)-N-(thiazol-4-yl)benzenesulfonamide] were, in that order, 640 nM, 1.67 µM and 0.564 µM.
With `Cc1cc(S(=O)(=O)Nc2cscn2)c(F)cc1N(C)[C@H]1CCN(Cc2nccs2)C1` [Example 136, (S)-2-fluoro-5-methyl-4-(methyl(1-(thiazol-2-ylmethyl)pyrrolidin-3-yl)amino)-N-(thiazol-4-yl)benzenesulfonamide], the IC50 in series [1] is 6800 nM; in series [2] it was above 30 µM; in series [3], above 30 µM.
`Cc1cc(S(=O)(=O)Nc2cscn2)c(F)cc1N(C)[C@H]1CCN(Cc2csc(C(F)(F)F)n2)C1` [Example 137, (S)-2-fluoro-5-methyl-4-(methyl(1-((2-(trifluoromethyl)thiazol-4-yl)methyl)pyrrolidin-3-yl)amino)-N-(thiazol-4-yl)benzenesulfonamide]: the IC50 in series [1] was 217 nM; in series [2], 16.5 µM; in series [3] it was 5.07 µM.
The corresponding values for `Cc1cc(S(=O)(=O)Nc2cscn2)c(F)cc1N(C)[C@H]1CCN(Cc2csc(C3CC3)n2)C1` [Example 138, (S)-4-((1-((2-cyclopropylthiazol-4-yl)methyl)pyrrolidin-3-yl)(methyl)amino)-2-fluoro-5-methyl-N-(thiazol-4-yl)benzenesulfonamide] are 50 nM, 10.4 µM and 9.48 µM.
The corresponding values for `Cc1coc(CN2CC[C@H](N(C)c3cc(F)c(S(=O)(=O)Nc4cscn4)cc3C)C2)n1` [Example 139, (S)-2-fluoro-5-methyl-4-(methyl(1-((4-methyloxazol-2-yl)methyl)pyrrolidin-3-yl)amino)-N-(thiazol-4-yl)benzenesulfonamide] are 7730 nM, above 30 µM and above 30 µM.
Take `Cc1cc(S(=O)(=O)Nc2cscn2)c(F)cc1N(C)[C@H]1CCN(Cc2cscn2)C1` [Example 140, (S)-2-fluoro-5-methyl-4-(methyl(1-(thiazol-4-ylmethyl)pyrrolidin-3-yl)amino)-N-(thiazol-4-yl)benzenesulfonamide]: the IC50 in series [1] was 2080 nM; in series [2], above 30 µM; in series [3], above 30 µM.
As for `Cc1cc(S(=O)(=O)Nc2cscn2)c(F)cc1N(C)[C@H]1CCN(Cc2cc(C)n(C)n2)C1` [Example 141, (S)-4-((1-((1,5-dimethyl-1H-pyrazol-3-yl)methyl)pyrrolidin-3-yl)(methyl)amino)-2-fluoro-5-methyl-N-(thiazol-4-yl)benzenesulfonamide], the IC50 in series [1] was 582 nM; in series [2], above 30 µM; in series [3], above 30 µM.
In the case of `Cc1cc(S(=O)(=O)Nc2cscn2)c(F)cc1N(C)[C@H]1CCN(Cc2ccc(C(F)(F)F)o2)C1` [Example 142, (S)-2-fluoro-5-methyl-4-(methyl(1-((5-(trifluoromethyl)furan-2-yl)methyl)pyrrolidin-3-yl)amino)-N-(thiazol-4-yl)benzenesulfonamide], the IC50 in series [1] was determined as 531 nM; in series [2], 6.76 µM; in series [3] it was 3.7 µM.
The like results for `Cc1cc(S(=O)(=O)Nc2cscn2)c(F)cc1N(C)[C@H]1CCN(Cc2cocn2)C1` [Example 143, (S)-2-fluoro-5-methyl-4-(methyl(1-(oxazol-4-ylmethyl)pyrrolidin-3-yl)amino)-N-(thiazol-4-yl)benzenesulfonamide] were, in that order, 10200 nM, above 30 µM and above 30 µM.
The like results for `Cc1cc(S(=O)(=O)Nc2cscn2)c(F)cc1N(C)[C@H]1CCN(Cc2nc3ccccc3s2)C1` [Example 144, (S)-4-((1-(benzo[d]thiazol-2-ylmethyl)pyrrolidin-3-yl)(methyl)amino)-2-fluoro-5-methyl-N-(thiazol-4-yl)benzenesulfonamide] were, in that order, 4800 nM, 8.47 µM and 6.72 µM.

Source of the values: patent publication US10246453B2, “Benzenesulfonamide compounds and their use as therapeutic agents” (Xenon Pharmaceuticals Inc., priority 2016, dated 2019).
